# Measured values published in article PMC12077488 (Science signaling, 2025).
# What was measured:
# DOR = conditions: cited from earlier work
# Gαi = Gαi (UniProt P08753); conditions: cited from earlier work
# [1] = tested on: endogenous adenosine receptors (A1 purinergic receptors); test: Gαi bONE-GO kinetic BRET in primary mouse cortical astroglial cells; assay type: cell-based; conditions: lentiviral Gαi bONE-GO, N=3
# GABABR = conditions: HEK293T cells expressing GABABR, GINIP-Nluc and YFP-CAAX
# Sequence of Gαi (P08753 2-354): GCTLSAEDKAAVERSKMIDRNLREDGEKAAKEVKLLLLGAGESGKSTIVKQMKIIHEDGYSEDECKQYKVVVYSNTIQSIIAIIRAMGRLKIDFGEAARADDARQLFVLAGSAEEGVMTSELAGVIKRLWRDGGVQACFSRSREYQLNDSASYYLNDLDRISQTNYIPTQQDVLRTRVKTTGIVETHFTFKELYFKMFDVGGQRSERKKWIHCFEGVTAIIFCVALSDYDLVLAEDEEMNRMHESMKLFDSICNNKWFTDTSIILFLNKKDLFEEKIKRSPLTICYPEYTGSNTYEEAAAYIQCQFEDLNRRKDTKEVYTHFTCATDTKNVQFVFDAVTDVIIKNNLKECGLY
# Sequence of GINIP (Q9UPV7 2-400): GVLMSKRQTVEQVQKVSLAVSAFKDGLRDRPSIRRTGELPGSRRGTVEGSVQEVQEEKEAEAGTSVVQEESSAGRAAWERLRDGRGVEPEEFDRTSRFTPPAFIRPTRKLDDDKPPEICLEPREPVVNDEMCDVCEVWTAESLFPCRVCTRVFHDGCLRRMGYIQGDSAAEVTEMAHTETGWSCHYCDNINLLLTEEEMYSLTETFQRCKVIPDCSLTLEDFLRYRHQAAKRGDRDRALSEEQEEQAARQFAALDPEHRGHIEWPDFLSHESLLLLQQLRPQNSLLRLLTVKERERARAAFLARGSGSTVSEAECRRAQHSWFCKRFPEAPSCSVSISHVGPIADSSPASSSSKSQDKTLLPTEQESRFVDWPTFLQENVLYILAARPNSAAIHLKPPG
molecule,measurement,setting,value
Endomorphin-2,agonist efficacy annotation for DOR in the IUPHAR database,DOR,lack of annotation
GINIP (from UniProt Q9UPV7),Kd,Gαi,65 nM
Endomorphin-1,DOR activity according to the source reference of the IUPHAR annotation,DOR,inactive
same,agonist efficacy annotation for DOR in the IUPHAR database,DOR,full agonist
Nc1ncnc2c1ncn2[C@@H]1O[C@H](CO)[C@@H](O)[C@H]1O [adenosine],BRET response (endogenous Gαi activation) to adenosine,[1],robust and concentration-dependent responses
CGP54626,reversal of the GABA-induced BRET response by antagonist,GABABR,rapidly reverted
